Assay results: publication PMC4694564 (Molecular pharmaceutics, 2015)

T1: carboxylesterase 1 (CES1) (Homo sapiens, UniProt P23141)
T1 sequence (P23141 18-567): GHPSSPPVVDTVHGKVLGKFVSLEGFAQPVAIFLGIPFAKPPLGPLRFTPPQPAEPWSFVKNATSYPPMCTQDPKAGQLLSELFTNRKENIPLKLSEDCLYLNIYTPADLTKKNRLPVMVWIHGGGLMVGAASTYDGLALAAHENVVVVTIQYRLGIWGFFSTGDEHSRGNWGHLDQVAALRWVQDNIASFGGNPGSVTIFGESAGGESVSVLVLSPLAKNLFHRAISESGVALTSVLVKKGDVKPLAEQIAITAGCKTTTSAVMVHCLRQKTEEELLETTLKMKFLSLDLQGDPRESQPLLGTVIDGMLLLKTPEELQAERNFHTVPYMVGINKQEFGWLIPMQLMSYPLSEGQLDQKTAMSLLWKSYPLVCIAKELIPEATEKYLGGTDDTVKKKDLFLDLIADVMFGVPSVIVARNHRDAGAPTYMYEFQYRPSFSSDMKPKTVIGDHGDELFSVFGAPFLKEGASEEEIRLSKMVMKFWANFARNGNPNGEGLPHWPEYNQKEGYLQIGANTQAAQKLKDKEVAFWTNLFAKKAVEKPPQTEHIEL

T2: carboxylesterase 2 (CES2) (Homo sapiens, UniProt O00748)
T2 sequence (O00748 27-559): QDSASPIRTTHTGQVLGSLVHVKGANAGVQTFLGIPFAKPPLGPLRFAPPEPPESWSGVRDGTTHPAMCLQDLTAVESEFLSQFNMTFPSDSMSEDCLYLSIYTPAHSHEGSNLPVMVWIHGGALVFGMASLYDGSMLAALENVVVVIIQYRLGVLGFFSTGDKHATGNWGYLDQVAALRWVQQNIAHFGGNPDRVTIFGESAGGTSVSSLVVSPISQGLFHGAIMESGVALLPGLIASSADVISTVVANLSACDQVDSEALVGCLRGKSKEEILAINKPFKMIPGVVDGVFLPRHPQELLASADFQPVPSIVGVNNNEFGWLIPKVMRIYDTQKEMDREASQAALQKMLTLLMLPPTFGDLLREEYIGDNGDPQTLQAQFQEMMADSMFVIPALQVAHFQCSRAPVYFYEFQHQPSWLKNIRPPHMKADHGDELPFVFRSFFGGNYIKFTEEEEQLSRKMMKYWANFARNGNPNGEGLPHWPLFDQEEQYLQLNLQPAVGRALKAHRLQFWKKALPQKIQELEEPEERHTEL


Tests used:
[1] = biological target: T1, carboxylesterase 1 (CES1); test: inhibition of recombinant human CES1; format: biochemical
[2] = biological target: T2, carboxylesterase 2 (CES2); test: inhibition of recombinant human CES2; format: biochemical
purified protein = substrate: CCOC(=O)C1=C[C@@H](OC(CC)CC)[C@H](NC(C)=O)[C@@H](N)C1; test: purified protein; format: biochemical, Homo sapiens

Row | Molecule | IC50 [1] | IC50 [2] | Km (purified protein)
1 | Cc1cc(OC(=O)NC2CCCCC2)ccc1F [WWL50, 4-fluoro-3-methylphenyl cyclohexylcarbamate] | 4.3 ± 0.6 nM | 429 ± 2.6 nM | 
2 | carboxylesterase 1 (CES1) (Homo sapiens) (protein) GHPSSPPVVDTVHGKVLGKFVSLEGFAQPVAIFLGIPFAKPPLGPLRFTPPQPAEPWSFVKNATSYPPMCTQDPKAGQLLSELFTNRKENIPLKLSEDCLYLNIYTPADLTKKNRLPVMVWIHGGGLMVGAASTYDGLALAAHENVVVVTIQYRLGIWGFFSTGDEHSRGNWGHLDQVAALRWVQDNIASFGGNPGSVTIFGESAGGESVSVLVLSPLAKNLFHRAISESGVALTSVLVKKGDVKPLAEQIAITAGCKTTTSAVMVHCLRQKTEEELLETTLKMKFLSLDLQGDPRESQPLLGTVIDGMLLLKTPEELQAERNFHTVPYMVGINKQEFGWLIPMQLMSYPLSEGQLDQKTAMSLLWKSYPLVCIAKELIPEATEKYLGGTDDTVKKKDLFLDLIADVMFGVPSVIVARNHRDAGAPTYMYEFQYRPSFSSDMKPKTVIGDHGDELFSVFGAPFLKEGASEEEIRLSKMVMKFWANFARNGNPNGEGLPHWPEYNQKEGYLQIGANTQAAQKLKDKEVAFWTNLFAKKAVEKPPQTEHIEL |  |  | 2900 µM
